Source: ChEMBL document CHEMBL4483862, “Open-source discovery of chemical leads for next-generation chemoprotective antimalarials” (2018)

System: Plasmodium berghei
Assay: Luciferase/luciferin-expressing antifolate-resistant parasites were used to infect a culture of HepG2 cells that were pre-incubated with compounds. Infected hepatocytes emit light due to the luciferase reaction. Assay results are presented as the percent inhibition of light emission compared to control. […]
Format: functional
Details: sporozoite; for IC90: read-out: LUCIFERASE INFECTION ASSAY - IC90
[1] = read-out: LUCIFERASE INFECTION ASSAY - IC50

SMILES: Cc1ccc(C)c(-n2nnnc2SCC(=O)NC(=O)NC23CC4CC(CC(C4)C2)C3)c1
- IC50 (PBLUC_HILL_SLOPE 3.63, PBLUC_R_SQUARED 0.524, read-out: LUCIFERASE INFECTION ASSAY - IC50): 5.39 µM
- IC90: 9.88 µM

SMILES: CC(C)OCCCn1c(S/C=C/c2ccc([N+](=O)[O-])o2)nc2ccccc2c1=O
- IC50 (FFLUC_HILL_SLOPE 0.75, FFLUC_R_SQUARED 0.0694, read-out: LUCIFERASE INFECTION ASSAY - IC50): > 10 µM
- IC90: > 10 µM

SMILES: OCc1ccc(-c2cnc3cnc(-c4ccc(Cl)cc4)cn23)cc1
- IC50 [1]: > 9.83 µM
- IC90: > 9.83 µM

SMILES: O=C(CCc1nc(=O)c2ccccc2[nH]1)OC(C(=O)c1c[nH]c2ccccc12)c1ccccc1 (configuration not stated)
- IC50 [1]: > 10 µM
- IC90: > 10 µM

SMILES: Cc1c(-c2ccccc2)oc2c(C(=O)NCc3ccc(Cn4cccn4)cc3)cccc2c1=O
- IC50 (FFLUC_HILL_SLOPE 3.81, FFLUC_R_SQUARED 0.0734, PBLUC_HILL_SLOPE 3.95, PBLUC_R_SQUARED 0.349, read-out: LUCIFERASE INFECTION ASSAY - IC50): 7.72 µM
- IC90: > 10 µM

SMILES: COc1ccc(OC)c(CCNc2nc3cnc(-c4cccc(Oc5ccccc5)c4)cc3n2C)c1
- IC50 [1]: 0.52 µM
- IC90: 1.51 µM

SMILES: FC(F)(F)Oc1ccc(Nc2cc3[nH]c(-c4ccccn4)cc3cn2)cc1
- IC50 (HEPG2TOX_HILL_SLOPE 10.1, HEPG2TOX_R_SQUARED 0.985, PBLUC_HILL_SLOPE 7.97, PBLUC_R_SQUARED 0.35, read-out: LUCIFERASE INFECTION ASSAY - IC50): 3.82 µM
- IC90: 5.04 µM

SMILES: C=CCN(C(=O)C1CCN(S(=O)(=O)c2cccs2)CC1)c1nc2c(s1)CCCC2
- IC50 [1]: > 10 µM
- IC90: > 10 µM

SMILES: O=C(Nc1nc2ccccc2[nH]1)c1cc(-c2ccccn2)nc2ccccc12
- IC50 (PBLUC_HILL_SLOPE 9.86, PBLUC_R_SQUARED 0.717, read-out: LUCIFERASE INFECTION ASSAY - IC50): 7.76 µM
- IC90: 9.7 µM

SMILES: COc1ccc(-n2cc(-c3ccccc3)c3c(NCc4cccnc4)ncnc32)cc1
- IC50 [1]: > 10 µM
- IC90: > 10 µM

SMILES: CC(C)c1ccc(Nc2ccn3ncc(-c4cccc(N)c4)c3n2)cc1
- IC50 (HEPG2TOX_HILL_SLOPE 3.91, HEPG2TOX_R_SQUARED 0.953, PBLUC_HILL_SLOPE 9.39, PBLUC_R_SQUARED 0.444, read-out: LUCIFERASE INFECTION ASSAY - IC50): 8 µM
- IC90: > 9.61 µM

SMILES: Cc1ccc(-c2cs/c(=N\CCN3CCOCC3)n2/N=C/c2cccs2)cc1C
- IC50 (HEPG2TOX_HILL_SLOPE 0.856, HEPG2TOX_R_SQUARED 0.317, read-out: LUCIFERASE INFECTION ASSAY - IC50): > 10 µM
- IC90: > 10 µM

SMILES: O=c1[nH]c2ccc(NCc3cc(Cl)ccc3OCc3ccc(F)cc3)cc2[nH]1
- IC50 [1]: > 8.29 µM
- IC90: > 8.29 µM

SMILES: Cn1cc(-c2cn3c(-c4ccc(C(C)(C)C)cc4)cnc3cn2)cn1
- IC50 (PBLUC_HILL_SLOPE 3.33, PBLUC_R_SQUARED 0.519, read-out: LUCIFERASE INFECTION ASSAY - IC50): 6.79 µM
- IC90: > 9.96 µM

SMILES: C(=N\c1ccc2ccccc2c1)/Nc1ccc2ccccc2c1
- IC50 (HEPG2TOX_HILL_SLOPE 0.512, HEPG2TOX_R_SQUARED 0.0455, PBLUC_HILL_SLOPE 17.2, PBLUC_R_SQUARED 0.33, read-out: LUCIFERASE INFECTION ASSAY - IC50): 10.8 µM
- IC90: > 11.1 µM

SMILES: Clc1ccc(-c2csc(-c3nnc4n3-c3ccccc3SC4)n2)s1
- IC50 (PBLUC_HILL_SLOPE 1, PBLUC_R_SQUARED 0.439, read-out: LUCIFERASE INFECTION ASSAY - IC50): 6.32 µM
- IC90: > 10 µM

SMILES: CCOC(=O)c1[nH]c(C)c(C(=O)/C=C/c2c(C)nn(-c3ccc(F)cc3)c2Cl)c1C
- IC50 (HEPG2TOX_HILL_SLOPE 1.33, HEPG2TOX_R_SQUARED 0.905, PBLUC_HILL_SLOPE 0.748, PBLUC_R_SQUARED 0.781, read-out: LUCIFERASE INFECTION ASSAY - IC50): 0.0341 µM
- IC90: 0.643 µM

SMILES: c1cc2c(cc1-c1cn3c(-c4ccc5c(c4)OCO5)cnc3cn1)OCO2
- IC50 (HEPG2TOX_HILL_SLOPE 1.25, HEPG2TOX_R_SQUARED 0.883, PBLUC_HILL_SLOPE 2.72, PBLUC_R_SQUARED 0.694, read-out: LUCIFERASE INFECTION ASSAY - IC50): 3.66 µM
- IC90: 8.22 µM

SMILES: CCOc1cc(/C=C(/C(=O)c2ccc(Br)cc2)c2nc3ccccc3[nH]2)ccc1O
- IC50 (PBLUC_HILL_SLOPE 158, PBLUC_R_SQUARED 0.0148, read-out: LUCIFERASE INFECTION ASSAY - IC50): 4.53 µM
- IC90: 4.59 µM

SMILES: O=C(C(Sc1nc2cc(S(=O)(=O)N3CCCCC3)ccc2o1)c1ccccc1)N1CCCCC1 (configuration not stated)
- IC50 (HEPG2TOX_HILL_SLOPE 0.777, HEPG2TOX_R_SQUARED 0.137, read-out: LUCIFERASE INFECTION ASSAY - IC50): > 10 µM
- IC90: > 10 µM

SMILES: NS(=O)(=O)c1ccc(CCNC(=O)c2ccc3nccnc3c2)cc1
- IC50 [1]: > 10 µM
- IC90: > 10 µM

SMILES: Cc1cccc(/C=C(\c2nc3ccccc3[nH]2)S(=O)(=O)c2ccccc2)c1
- IC50 (HEPG2TOX_HILL_SLOPE 1.77, HEPG2TOX_R_SQUARED 0.525, PBLUC_HILL_SLOPE 7.51, 3.20, PBLUC_R_SQUARED 0.576, 0.706, read-out: LUCIFERASE INFECTION ASSAY - IC50): 1.36 µM
- IC90: 2.31 µM

SMILES: Cc1cc(C)cc(NC(=O)CCN2c3ccccc3Sc3ccccc32)c1
- IC50 (FFLUC_HILL_SLOPE 15.9, FFLUC_R_SQUARED 0.234, read-out: LUCIFERASE INFECTION ASSAY - IC50): > 10 µM
- IC90: > 10 µM

SMILES: c1ccc(C(Nc2ncnc3sccc23)c2cccs2)cc1 (configuration not stated)
- IC50 (HEPG2TOX_HILL_SLOPE 2.82, HEPG2TOX_R_SQUARED 0.952, PBLUC_HILL_SLOPE 3.44, PBLUC_R_SQUARED 0.151, read-out: LUCIFERASE INFECTION ASSAY - IC50): 7.24 µM
- IC90: > 10 µM

SMILES: OCc1cccc(-c2cnc3ccc(-c4cccc(OC(F)(F)F)c4)nn23)c1
- IC50 (HEPG2TOX_HILL_SLOPE 8.38, HEPG2TOX_R_SQUARED 0.945, PBLUC_HILL_SLOPE 12.7, PBLUC_R_SQUARED 0.452, read-out: LUCIFERASE INFECTION ASSAY - IC50): 3.54 µM
- IC90: 4.21 µM

SMILES: O=C(CN1CCN(C/C=C/c2ccccc2)CC1)NC(c1ccccc1)c1ccccc1
- IC50 [1]: > 10 µM
- IC90: > 10 µM

SMILES: O=C(Nc1nc(-c2ccccn2)cs1)C1CC1c1ccccc1F (configuration not stated)
- IC50 (HEPG2TOX_HILL_SLOPE 7.24, HEPG2TOX_R_SQUARED 0.0806, PBLUC_HILL_SLOPE 12.4, PBLUC_R_SQUARED 0.768, read-out: LUCIFERASE INFECTION ASSAY - IC50): 2.99 µM
- IC90: 3.57 µM

SMILES: COc1cc(-c2cnn3ccc(Nc4ccc(C(C)C)cc4)nc23)cc(OC)c1OC
- IC50 (HEPG2TOX_HILL_SLOPE 4.98, HEPG2TOX_R_SQUARED 0.891, PBLUC_HILL_SLOPE 3.46, PBLUC_R_SQUARED 0.366, read-out: LUCIFERASE INFECTION ASSAY - IC50): 2.63 µM
- IC90: 4.97 µM

SMILES: N#C/C(=N\Nc1cccc(Cl)c1Cl)C(N)=S
- IC50 (PBLUC_HILL_SLOPE 7.41, PBLUC_R_SQUARED 0.441, read-out: LUCIFERASE INFECTION ASSAY - IC50): > 12.1 µM
- IC90: > 12.1 µM

SMILES: Cc1c(/C=N/N)c2ccccn2c1C#N
- IC50 [1]: > 10 µM
- IC90: > 10 µM

SMILES: O=C(O)COc1ccccc1CS(=O)(=O)c1ccc(Cl)cc1
- IC50 [1]: > 9.68 µM
- IC90: > 9.68 µM

SMILES: CC1(C(=O)NCc2cccnc2)CCN1Cc1ccccc1Cl (configuration not stated)
- IC50 (PBLUC_HILL_SLOPE 2.38, PBLUC_R_SQUARED 0.474, read-out: LUCIFERASE INFECTION ASSAY - IC50): 4.27 µM
- IC90: > 10 µM

SMILES: Cc1cc(C(=O)Cn2nnc3ccccc3c2=O)c(C)n1-c1ccccc1F
- IC50 (PBLUC_HILL_SLOPE 0.371, 0.679, PBLUC_R_SQUARED 0.784, 0.965, read-out: LUCIFERASE INFECTION ASSAY - IC50): 0.126 µM
- IC90: 3.8 µM

SMILES: N#Cc1c(Cl)nsc1NCc1cnn(Cc2ccccc2)c1
- IC50 (FFLUC_HILL_SLOPE 12.9, FFLUC_R_SQUARED 0.244, HEPG2TOX_HILL_SLOPE 2.27, HEPG2TOX_R_SQUARED 0.949, PBLUC_HILL_SLOPE 20.5, PBLUC_R_SQUARED 0.627, read-out: LUCIFERASE INFECTION ASSAY - IC50): 1.1 µM
- IC90: 1.22 µM

SMILES: O=C(CN(Cc1c(F)cccc1Cl)C1CC1)Nc1ccccc1Cl
- IC50 (FFLUC_HILL_SLOPE 11.2, FFLUC_R_SQUARED 0.995, read-out: LUCIFERASE INFECTION ASSAY - IC50): > 10 µM
- IC90: > 10 µM

SMILES: CN(Cc1ccc2c(c1)OCCO2)C(=O)c1ccc(NC(=O)C23CC4CC(CC(C4)C2)C3)cc1
- IC50 (PBLUC_HILL_SLOPE 12.4, PBLUC_R_SQUARED 0.0833, read-out: LUCIFERASE INFECTION ASSAY - IC50): > 10 µM
- IC90: > 10 µM

SMILES: CCCn1c(C)cc(C(=O)CN(C)S(=O)(=O)c2ccc(Cl)cc2)c1C
- IC50 (HEPG2TOX_HILL_SLOPE 3.32, HEPG2TOX_R_SQUARED 0.751, PBLUC_HILL_SLOPE 15.5, PBLUC_R_SQUARED 0.301, read-out: LUCIFERASE INFECTION ASSAY - IC50): 9.26 µM
- IC90: > 10 µM

SMILES: O=C(CSc1nnc(/C=C/c2ccc(F)cc2)[nH]1)N(c1ccccc1)C1CCCCC1
- IC50 (PBLUC_HILL_SLOPE 1.52, PBLUC_R_SQUARED 0.866, read-out: LUCIFERASE INFECTION ASSAY - IC50): 0.374 µM
- IC90: 1.58 µM

SMILES: O=C(Nc1cccc(S(=O)(=O)NC2=NCCCCC2)c1)c1cncc(Br)c1
- IC50 [1]: > 10 µM
- IC90: > 10 µM

SMILES: Nc1ncc(-c2ccccc2Oc2ccccc2)cc1-c1ccc(O)cc1
- IC50 (FFLUC_HILL_SLOPE 1.5, FFLUC_R_SQUARED 0.249, PBLUC_HILL_SLOPE 4.63, PBLUC_R_SQUARED 0.261, read-out: LUCIFERASE INFECTION ASSAY - IC50): 6.66 µM
- IC90: > 9.31 µM

SMILES: CCN(CC(O)COc1ccccc1-c1ccccc1)C1CCCCC1 (configuration not stated)
- IC50 (HEPG2TOX_HILL_SLOPE 6.72, HEPG2TOX_R_SQUARED 0.0493, PBLUC_HILL_SLOPE 495, PBLUC_R_SQUARED 0.169, read-out: LUCIFERASE INFECTION ASSAY - IC50): 9.09 µM
- IC90: 9.13 µM
